Results on eleven compounds are retold here after patent US12606572B2, “Substituted heterocycles and uses thereof” (Kumquat Biosciences Inc., priority 2023, dated 2026).

For one experiment, the target named is T1, KRAS G12S (Homo sapiens, UniProt P01116, G12S).
T1 construct: made in house; host or cells: E. coli BL21 (DE3)
Nature of the experiment: HTRF assay, interaction of GST-tagged K-Ras with His-tagged hSOS1 (KRAS G12S). Format: biochemical. To be noted: <500 nM, read-out: Inhibition of KRAS G12S (IC50). The source says: This assay can be also used to assess a selective inhibition or reduction of signaling output of a mutant Ras protein relative to a wildtype, or relative to a different mutant Ras protein. For example, the equilibrium interaction of wildtype KRAS or K-Ras mutant (e.g., wildtype or a mutant thereof) with SOS1 (e.g., hSOS1) can be assessed as a proxy or an indication for the ability of a subject compound to bind and inhibit Ras protein. The HTRF assay detects from (i) a fluorescence resonance energy transfer (FRET) donor (e.g., antiGST-Europium) that is bound to GST-tagged K-Ras mutant to (ii) a FRET acceptor (e.g., anti-6His-XL665) bound to a His-tagged hSOS1.
The assay buffer can contain ˜5 mM HEPES pH 7.4, ˜150 mM NaCl, ˜1 mM DTT, 0.05% BSA and 0.0025% (v/v) Igepal. A Ras working solution is prepared in an assay buffer containing typically a suitable amount of the protein construct (e.g., GST-tagged K-Ras mutant) and the FRET donor (e.g., antiGST-Eu(K) from Cisbio, France). A SOS1 working solution is prepared in an assay buffer containing suitable amount of the protein construct (e.g., His-hSOS1) and the FRET acceptor (e.g., anti-6His-XL665 from Cisbio, France). A suitable amount of the protein construct will depend on the range of activity or range of IC50 values being detected or under investigation. For detecting an IC50 within a range of 500 nM, the protein constructs of the same range of molarity can be utilized.
A fixed volume of DMSO with or without test compound is transferred into a 384-well plate. Ras working solution is added to all wells of the test plate. SOS1 working solution is added to all wells except for those that are subsequently filled with inhibitor control solution. Upon incubation for about 10 minutes or longer, the fluorescence is measured with a M1000Pro plate reader (Tecan) using HTRF detection (excitation 337 nm, emission 1: 620 nm, emission 2: 665 nm). Compounds are tested in duplicate at different concentrations (for example, 10 μM, 2.5 μM, 0.63 μM, 0.16 μM, 0.04 μM, 0.01 μM test compound). The ratiometric data (i.e., emission 2 divided by emission 1) is used to calculate IC50 values against Ras using GraphPad Prism (GraphPad software). Signaling output measured in terms of IC50 values can be obtained and a ratio of IC50 against one mutant relative to another mutant can be calculated. For instance, a selective reduction of K-Ras G12S signaling output can be evidenced by a ratio greater than one. In particular, a selective reduction of K-Ras G12S signaling relative to K-Ras WT signaling is evidenced if the ratio of IC50 (against K-Ras WT) to IC50 (against K-Ras G12S) is greater than 1.
(In TR-FRET formats the signal depends on donor and acceptor labels being close together.)

The next experiment deals with T2, KRAS WT (Homo sapiens, UniProt P01116).
T2 construct: made in house; host or cells: E. coli BL21 (DE3)
T2 sequence (P01116 1-188 isoform P01116-2): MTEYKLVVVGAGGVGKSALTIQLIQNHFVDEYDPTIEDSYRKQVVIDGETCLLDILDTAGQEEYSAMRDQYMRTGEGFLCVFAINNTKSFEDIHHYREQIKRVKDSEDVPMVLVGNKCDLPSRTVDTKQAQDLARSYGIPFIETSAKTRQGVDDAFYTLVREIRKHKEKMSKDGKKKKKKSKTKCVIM
Nature of the experiment: HTRF assay, interaction of GST-tagged K-Ras with His-tagged hSOS1 (KRAS wildtype). To be noted: <500 nM, read-out: Inhibition of KRAS WT (IC50). In kind it is biochemical. In outline: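 GST-K-Ras (G12S or WT) with anti-GST-Eu donor mixed with His-hSOS1 and anti-6His-XL665 acceptor in ~5 mM HEPES pH 7.4, 150 mM NaCl, 1 mM DTT, 0.05% BSA, 0.0025% Igepal. After ~10 min or longer, HTRF 665/620 nm ratio read.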

T1 sequence (P01116 1-188 isoform P01116-2 G12S): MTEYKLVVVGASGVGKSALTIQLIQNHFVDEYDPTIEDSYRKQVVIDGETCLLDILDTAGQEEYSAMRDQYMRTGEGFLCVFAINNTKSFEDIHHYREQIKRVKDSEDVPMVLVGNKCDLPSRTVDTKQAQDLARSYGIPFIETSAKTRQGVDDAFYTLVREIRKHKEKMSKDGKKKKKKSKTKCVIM

Broadly, the IC50 is the concentration at which inhibition is half-maximal. As for `N#Cc1c(N)sc2c(F)ccc(-c3c(Cl)c4c5c(nc(OC[C@@]67CCCN6C[C@H](F)C7)nc5c3F)N(CC3CN(C(=O)/C=C/C(F)F)C3)CCO4)c12` [Compound 423, 2-amino-4-(8-chloro-4-((1-((E)-4,4-difluorobut-2-enoyl)azetidin-3-yl)methyl)-10-fluoro-2-(((2R,7aS)-2-fluorotetrahydro-1H-pyrrolizin-7a (5H)-yl)methoxy)-5,6-dihydro-4H-[1,4]oxazepino[5,6,7-de]quinazolin-9-yl)-7-fluorobenzo[b]thiophene-3-carbonitrile], the IC50 at KRAS G12S and on KRAS WT was under 0.5 µM in each case.

As for `C[C@H](O)[C@H]1COc2c(Cl)c(-c3ccc(F)c4sc(N)c(C#N)c34)c(F)c3nc(OC[C@@]45CCCN4C[C@H](F)C5)nc(c23)N1CC1CN(C(=O)n2ccnc2)C1` [Compound 427, 4-((5R)-4-((1-(1H-imidazole-1-carbonyl)azetidin-3-yl)methyl)-8-chloro-10-fluoro-2-(((2R,7aS)-2-fluorotetrahydro-1H-pyrrolizin-7a(5H)-yl)methoxy)-5-((S)-1-hydroxyethyl)-5,6-dihydro-4H-[1,4]oxazepino [5,6,7-de]quinazolin-9-yl)-2-amino-7-fluorobenzo[b] thiophene-3-carbonitrile], the IC50 on KRAS G12S and at KRAS WT was under 0.5 µM throughout.

Turning to `C[C@H](O)[C@H]1COc2c(Cl)c(-c3ccc(F)c4sc(N)c(C#N)c34)c(F)c3nc(OC[C@@]45CCCN4C[C@H](F)C5)nc(c23)N1C1CC(N(C)C(=O)n2ccnc2)C1` (stereo partly drawn) [Compound 428, N-(3-((5R)-9-(2-amino-3-cyano-7-fluorobenzo[b]thiophen-4-yl)-8-chloro-10-fluoro-2-(((2R,7aS)-2-fluorotetrahydro-1H-pyrrolizin-7a(5H)-yl)methoxy)-5-((S)-1-hydroxyethyl)-5,6-dihydro-4H-[1,4]oxazepino [5,6,7-de]quinazolin-4-yl)cyclobutyl)-N-methyl-1H-imidazole-1-carboxamide], the IC50 at KRAS G12S and at KRAS WT was under 0.5 µM each time.

Consider `Cc1cn(C(=O)N2CC[C@@H](N3C[C@H](C)Oc4nc(-c5cc(N)c(F)c(C)c5C(F)(F)F)c(F)c5nc(OC[C@@]67CCCN6C[C@H](F)C7)nc3c45)[C@H]2C)c(C)n1` [Compound 430, ((2R,3R)-3-((S)-5-(5-amino-4-fluoro-3-methyl-2-(trifluoromethyl)phenyl)-4-fluoro-2-(((2R,7aS)-2-fluorotetrahydro-1H-pyrrolizin-7a(5H)-yl)methoxy)-8-methyl-8,9-dihydro-10H-7-oxa-1,3,6,10-tetraazacyclohepta [de]naphthalen-10-yl)-2-methylpyrrolidin-1-yl)(2,4-dimethyl-1H-imidazol-1-yl)methanone], for which the IC50 on KRAS G12S and at KRAS WT was under 0.5 µM throughout.

As to `C[C@@H]1[C@H](N2CCCc3nc(-c4ccc(F)c5sc(N)c(C#N)c45)c(F)c4nc(OC[C@@]56CCCN5C[C@H](F)C6)nc2c34)CCN1C(=O)n1cnc(Cl)n1` [Compound 433, 2-amino-4-(10-((2R,3R)-1-(3-chloro-1H-1,2,4-triazole-1-carbonyl)-2-methylpyrrolidin-3-yl)-4-fluoro-2-(((2R,7aS)-2-fluorotetrahydro-1H-pyrrolizin-7a(5H)-yl)methoxy)-7,8,9,10-tetrahydro-1,3,6,10-tetraazacyclohepta[de]naphthalen-5-yl)-7-fluorobenzo[b]thiophene-3-carbonitrile], the IC50 on KRAS G12S and at KRAS WT was under 0.5 µM each time.

`Cc1cn(C(=O)N2CC[C@@H](N3CCCCc4nc(-c5cc(N)c(F)c(C)c5C(F)(F)F)c(F)c5nc(OC[C@@]67CCCN6C[C@H](F)C7)nc3c45)[C@H]2C)c(C)n1` [Compound 438, ((2R,3R)-3-(5-(5-amino-4-fluoro-3-methyl-2-(trifluoromethyl)phenyl)-4-fluoro-2-(((2R,7aS)-2-fluorotetrahydro-1H-pyrrolizin-7a(5H)-yl)methoxy)-7,8,9,10-tetrahydro-11H-1,3,6,11-tetraazacycloocta[de]naphthalen-11-yl)-2-methylpyrrolidin-1-yl)(2,4-dimethyl-1H-imidazol-1-yl)methanone]: the IC50 on KRAS G12S and at KRAS WT was under 0.5 µM throughout.

Regarding `C/C(C#N)=C\C(=O)N1CC(CN2CCOc3c(Cl)c(-c4ccc(F)c5sc(N)c(C#N)c45)c(F)c4nc(OC[C@@]56CCCN5C[C@H](F)C6)nc2c34)C1` [Compound 439, 2-amino-4-(8-chloro-4-((1-((E)-3-cyanobut-2-enoyl)azetidin-3-yl)methyl)-10-fluoro-2-(((2R,7aS)-2-fluorotetrahydro-1H-pyrrolizin-7a(5H)-yl)methoxy)-5,6-dihydro-4H-[1,4]oxazepino[5,6,7-de]quinazolin-9-yl)-7-fluorobenzo [b]thiophene-3-carbonitrile], the IC50 at KRAS G12S and on KRAS WT was under 0.5 µM in each case.

`N#CCC1([C@@H]2[C@H](CN3CCOc4c(Cl)c(-c5ccc(F)c6sc(N)c(C#N)c56)c(F)c5nc(OC[C@@]67CCCN6C[C@H](F)C7)nc3c45)CN2C(=O)n2ccnc2)CC1` [Compound 442, 2-amino-4-(8-chloro-4-(((2S,3R)-2-(1-(cyanomethyl)cyclopropyl)-1-(1H-imidazole-1-carbonyl)azetidin-3-yl)methyl)-10-fluoro-2-(((2R,7aS)-2-fluorotetrahydro-1H-pyrrolizin-7a(5H)-yl)methoxy)-5,6-dihydro-4H-[1,4]oxazepino [5,6,7-de]quinazolin-9-yl)-7-fluorobenzo[b]thiophene-3-carbonitrile]: the IC50 at KRAS G12S and on KRAS WT was under 0.5 µM throughout.

Turning to `CC([C@H]1CCN1C(=O)n1cncn1)N1CCOc2c(Cl)c(-c3ccc(F)c4sc(N)c(C#N)c34)c(F)c3nc(OC[C@@]45CCCN4C[C@H](F)C5)nc1c23` (stereo partly drawn) [Compound 445, 4-(4-(1-((R)-1-(1H-1,2,4-triazole-1-carbonyl)azetidin-2-yl)ethyl)-8-chloro-10-fluoro-2-(((2R,7aS)-2-fluorotetrahydro-1H-pyrrolizin-7a (5H)-yl)methoxy)-5,6-dihydro-4H-[1,4]oxazepino[5,6,7-de]quinazolin-9-yl)-2-amino-7-fluorobenzo[b]thiophene-3-carbonitrile], the IC50 at KRAS G12S and at KRAS WT was under 0.5 µM each time.

Consider `C=C(C(=O)N1CC(CN2CCOc3c(Cl)c(-c4ccc(F)c5sc(N)c(C#N)c45)c(F)c4nc(OC[C@@]56CCCN5C[C@H](F)C6)nc2c34)C1)C1CC1` [Compound 447, 2-amino-4-(8-chloro-4-((1-(2-cyclopropylacryloyl)azetidin-3-yl)methyl)-10-fluoro-2-(((2R,7aS)-2-fluorotetrahydro-1H-pyrrolizin-7a(5H)-yl)methoxy)-5,6-dihydro-4H-[1,4]oxazepino [5,6,7-de]quinazolin-9-yl)-7-fluorobenzo[b]thiophene-3-carbonitrile], for which the half-inhibitory concentration (IC50) at KRAS G12S and at KRAS WT was under 0.5 µM each time.

As for `C[C@@H]1[C@H](N2CCCOc3c(Cl)c(-c4ccc(F)c5sc(N)c(C#N)c45)c(F)c4nc(OC[C@@]56CCCN5C[C@H](F)C6)nc2c34)CCN1C(=O)n1cnc(F)n1` [Compound 448, 2-amino-4-(9-chloro-11-fluoro-4-((2R,3R)-1-(3-fluoro-1H-1,2,4-triazole-1-carbonyl)-2-methylpyrrolidin-3-yl)-2-(((2R,7aS)-2-fluorotetrahydro-1H-pyrrolizin-7a(5H)-yl)methoxy)-4,5,6,7-tetrahydro-[1,5]oxazocino [4,3,2-de]quinazolin-10-yl)-7-fluorobenzo[b]thiophene-3-carbonitrile], the IC50 on KRAS G12S and on KRAS WT was under 0.5 µM throughout.
